Reference: article PMC6811774, “Potent, selective, and subunit‐dependent activation of TRPC5 channels by a xanthine derivative” (British Journal of Pharmacology, 2019)

Biological target: T1, TRPC5:C5 channels (hTRPC5) (Homo sapiens, UniProt Q9UL62)
T1 construct: expressed in transfected cells
T1 sequence (Q9UL62 1-973): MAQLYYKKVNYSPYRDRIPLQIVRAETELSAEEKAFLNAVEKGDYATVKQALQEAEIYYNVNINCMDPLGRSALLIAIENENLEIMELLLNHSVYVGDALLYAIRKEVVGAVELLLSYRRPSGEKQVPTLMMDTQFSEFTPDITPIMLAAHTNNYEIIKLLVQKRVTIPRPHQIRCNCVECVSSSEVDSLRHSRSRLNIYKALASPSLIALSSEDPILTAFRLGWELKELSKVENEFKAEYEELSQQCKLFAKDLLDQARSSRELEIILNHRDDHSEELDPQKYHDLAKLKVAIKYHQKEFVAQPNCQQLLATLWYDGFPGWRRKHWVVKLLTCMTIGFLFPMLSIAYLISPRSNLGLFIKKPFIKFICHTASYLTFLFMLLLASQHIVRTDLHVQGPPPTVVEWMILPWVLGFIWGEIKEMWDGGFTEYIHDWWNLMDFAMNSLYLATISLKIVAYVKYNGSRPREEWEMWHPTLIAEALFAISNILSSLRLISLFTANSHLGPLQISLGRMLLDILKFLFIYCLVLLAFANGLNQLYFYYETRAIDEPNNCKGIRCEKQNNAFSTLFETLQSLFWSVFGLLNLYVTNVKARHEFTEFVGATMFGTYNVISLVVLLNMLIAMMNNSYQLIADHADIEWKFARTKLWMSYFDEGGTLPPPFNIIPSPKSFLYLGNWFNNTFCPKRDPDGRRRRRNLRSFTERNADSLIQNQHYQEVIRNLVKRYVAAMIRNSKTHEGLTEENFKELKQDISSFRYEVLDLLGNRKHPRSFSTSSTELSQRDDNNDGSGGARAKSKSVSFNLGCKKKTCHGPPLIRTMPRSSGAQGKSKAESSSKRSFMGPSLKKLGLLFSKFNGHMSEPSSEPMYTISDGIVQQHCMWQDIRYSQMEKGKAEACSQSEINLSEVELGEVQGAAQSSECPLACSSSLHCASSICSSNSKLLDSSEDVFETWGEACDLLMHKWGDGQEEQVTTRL
Test: Excised outside-out patch-clamp, hTRPC5-expressing HEK (Tet+) T-REx cells
Assay type: cell-based
Experimental: For electrophysiology experiments, cells were plated at a low density of 20–30% onto round or square glass coverslips (13 mm diameter or 5 × 5 mm), and TRPC expression in HEK T‐REx was induced with 1 μg·ml^−1 tetracycline 24 hr before experimentation. Experiments were carried out at room temperature. Extracellular solution consisted of SBS. Patch‐clamp recordings were performed in whole‐cell mode (Figure S7) and in excised outside‐out patch mode under voltage clamp at room temperature using 2–4 MΩ patch pipettes fabricated from borosilicate glass capillaries with an outside diameter of 1 mm and an inside diameter of 0.58 mm (Harvard Apparatus). The voltage protocol comprised voltage ramps applied from −100 to +100 mV every 10 s from a holding potential of 0 mV. The patch‐clamp currents were recorded using Axopatch 200B or HEKA EPC‐800 amplifiers, digitized by a Digidata 1440 or PCI6229 (National Instruments Japan, Tokyo, Japan) and recorded to a computer using pCLAMP10 (Molecular Devices) or WinWCPV4.5 (developed by Dr John Dempster, University of Strathclyde, UK). The data were filtered at 1 kHz and analysed offline using Clampfit 10.2 software or WinWCPV4.5 and Origin 9.1 software (OriginLab, Northampton, MA). The bath solution consisted of SBS and the pipette solution (intracellular solution) contained 145‐mM CsCl, 2‐mM MgCl2, 10‐mM HEPES, 1‐mM EGTA (free acid), 5‐mM ATP (sodium salt), and 0.1‐mM NaGTP, titrated to pH 7.2 with CsOH. All solutions were filtered using a 0.2 μm filter (Sartorius, UK). Comparisons of peak current sizes mediated by EA‐activated TRPC1/4/5 channels in whole cells and excised outside‐out patches are provided in Figure S12.

In the case of `Cn1c(=O)n(CCCO)c(=O)c2c1nc(Oc1ccc(Cl)c(OC(F)(F)F)c1)n2Cc1ccc(Cl)cc1` [AM237], the “Effect on inward and outward currents induced by EA” value (30 nM EA, outside-out patch) is reported as “partially suppressed”, the “Amplitude of outward current response compared to response induced by 30-nM EA” value (+100 mV, outside-out patch) is reported as “up to 45%” and the “Amplitude of inward current response compared to response induced by 30-nM EA” value (-100 mV, outside-out patch) is reported as “up to 25%”. The “Concentration giving peak current” value (in the presence of 1- and 3-nM Pico145, decreasing at 300 nM and 1 μM) was 100 nM and the “Concentration giving maximum current response” value (no Pico145, lower responses at 100 nM) was 30 nM.
